In PMC5473904, “Epigenetic and antitumor effects of platinum(IV)-octanoato conjugates” (Scientific Reports, 2017):

How the values were obtained:
[1] = tested on: HDAC enzymes in HCT-116 cells; test: HDAC fluorimetric cellular activity assay; format: cell-based, human; settings: 1 µM
Protocol: These epigenetic processes consist in downregulation of HDACs and yet other biochemical processes triggered by VPA released in cells by the reduction of the Pt(IV) prodrug. Moreover, it has also been shown[15] that non-branched MCFAs may act as HDAC inhibitors. […] HDAC activity was analyzed in HCT-116 cells and confirmed by an independent set of experiments on A2780 cells (data not shown) by using a commercial HDAC fluorimetric cellular activity kit as described in the section Materials and methods.
Figure 3 Activity of HDAC enzymes in HCT-116 cells treated with the compounds tested in the present work; their concentration was 1 µM except the concentration of free OA, which was 1 mM. […] The data represent a mean from three independent experiments, each performed in quadruplicate. The error bars are the SDs.
The activity of HDAC enzymes was analyzed in HCT-116 cells treated with compounds tested in the present work (1 µM). […] The activity of HDAC was analyzed using the HDAC fluorimetric cellular activity assay kit (Enzo Life Sciences; Farmingdale, NY) in the whole cells according to manufacturer’s instructions. […] The plates were scanned on a fluorescence reader Infinite 200 (TECAN) (360 nm excitation, 460 nm emission).

[2] = log P (octanol/water) by shake flask method; format: physicochemical; settings: 0.2 M aqueous NaCl
Protocol: To quantify the hydrophobicity of the platinum complexes, the shake-flask method was used to measure partition coefficients (log P) values for octanol/water.
To determine the partition coefficient (P) the shake flask method was used. Octanol-saturated water (OSW) and water-saturated octanol (WSO) were prepared using analytical grade octanol and 0.2 M aqueous NaCl solution (to suppress hydrolysis of the chlorido complexes). […] Mixing was done by vortexing for 30 min at room temperature to establish the partition equilibrium. To separate the phases, centrifugation was done at 3000 g for 5 min. The aqueous layer was carefully separated from the octanol layer for platinum analysis. Platinum was quantified from aliquots taken from the octanol-saturated aqueous samples before and after partition by ICP-MS.

[3] = tested on: mitochondrial membrane potential Δψ m in HCT-116 cells; test: Mitochondrial membrane potential, TMRE staining and confocal microscopy; format: cell-based, human; settings: HCT-116, 1 µM, 5 h
Protocol: The loss of Δψ m represents an early event in the apoptosis cascade that precedes the release of pro-apoptotic factors such as cytochrome c and the activation of effector caspases.
HCT-116 cells were seeded on glass bottom dishes (P50G-0-30-F, MatTek Co., Ashland, USA) at the density 3 × 10^5 cells per dish, cultured in RPMI-1640 medium (without phenol red) and incubated at 37 °C in a humidified 5% CO2 atmosphere overnight. The cells were subsequently treated with the compounds (1 μM) for 5 h. After this period, cells were washed twice with PBS and resuspended in staining medium (without Pt compound), supplemented with Hoechst 33258 and tetramethylrhodamine, ethyl ester (TMRE) from multiparametric apoptosis assay kit (Cayman Chemical, Michigan, USA) according to the manufacturer’s protocol. After 20 min of staining, the staining medium was replaced by a fresh medium (without staining dye and platinum compound).
Images of living cells were acquired with a Leica TSC SP-5X laser scanning confocal microscope (Leica Microsystems, Mannheim, Germany) using an HCX PL APO lambda blue 63.0 × 1.20 water UV objective lens corrected with an appropriate beam path (resolution 1024 × 1024, frequency 100 Hz). […] Quantification of the mean signal intensity associated with single cells was performed using software ImageJ v1.47, U.S. National Institutes of Health, Bethesda, Maryland, USA.

[4] = parameters: method as in PMID 25888926; settings: valproato complexes; cited from earlier work
[5] = tested on: A2780cisR human ovarian carcinoma cells; parameters: method as in PMID 25888926; settings: compared with Pt(IV)diOA value of Table 1; cited from earlier work
[6] = tested on: MCF-7 human breast cancer cells; parameters: method as in PMID 25888926; settings: compared with Pt(IV)diOA value of Table 1; cited from earlier work
[7] = tested on: A2780 human ovarian carcinoma cells; parameters: method as in PMID 25888926; settings: compared with Pt(IV)diOA value of Table 1; cited from earlier work
[8] = tested on: DNA methylation in HCT-116 cells; test: DNA methylation analysis (Imprint methylated DNA quantification kit); format: cell-based, human; settings: HCT-116, 30 µM, 72 h
Protocol: Human colon adenocarcinoma cells HCT-116 were chosen as the model cellular system suitable for DNA methylation analysis because: (i) this human colorectal cancer cell line has been used as a prototypic model for analyses of the genetic basis of cancer, and the role of epigenetic changes in tumorigenesis; (ii) they have a propensity to both global DNA hypomethylation and to silence genes through promoter focal hypermethylation, [21]. HCT-116 cells were treated with the compounds at the concentrations indicated in Fig. 4A for 24 or 72 h and DNA was isolated for the complete methylation analysis as described in the experimental section. Decitabine (5-aza-2′-deoxycytidine), a hypomethylating agent which hypomethylates DNA by inhibiting DNMT, was used in these experiments as a […]. The IC50 values found for this agent in HCT-116 cells (the drug-treatment period was 72 h) was (7.5 ± 0.3) µM (Table 1).
Figure 4 Analysis of DNA methylation. (A) DNA was isolated from HCT-116 cells after the exposure to the agents at the concentrations indicated in the graph for 24 or 72 h. The levels of DNA methylation in the control was taken as 100%. The bars represent mean values from three independent experiments each performed in octuplicate. The error bars are the SDs. (B) DNMT activity in colon carcinoma cells HCT-116 treated for 24 h with the compounds tested in the present work. The DNMT activity in the control, untreated cells was taken as 100%. Error bars are the SDs and the stars at the top of bars denote a significant difference from the control with (*p < 0.05; **p < […]), calculated using […] student’s t-test. The bars represent mean values from three independent experiments, each performed in quadruplicate.
Human colon carcinoma cells (HCT-116) were seeded at the density 1.5 × 10^6 cells/dish. […] The DNA content in each sample was determined by UV spectrophotometry. DNA (200 ng) from the samples was loaded to the Imprint methylated DNA quantification kit (Sigma-Aldrich, USA). The level of methylated DNA was proportional to the absorbance measured at 450 nm.

CC(=O)[O][Pt]([NH2])([NH2])([Cl])([Cl])[O]C(C)=O [Pt(IV)diAc, cis, cis, trans-[Pt(IV)(NH3)2Cl2(Ac)2]]
Efficiency to inhibit HDAC activity [1]: very small | log P [2]: −1.85 ± 0.09 | Reduction in the fraction of cells with an intact Δψ m relative to untreated control [3]: no reduction

CCCC(CCC)C(=O)[O][Pt]([NH2])([NH2])([Cl])([Cl])[O]C(=O)C(CCC)CCC [Pt(IV)diVPA, cis, cis, trans-[Pt(IV)(NH3)2Cl2(VPA)2]]
logP [4]: 0.25 | IC50 [5]: 300 ± 100 nM | IC50 [6]: 900 ± 300 nM | IC50 [7]: 250 ± 90 nM

N.N.[Cl][Pt][Cl] [cisplatin, reference compound]
Change of DNA methylation [8]: non-significant change
